PubChem BioAssay AID1259407 (Chemical Carcinogenesis Research Information System (CCRIS), 2018)
Active and inactive are the calls of the source. No rule for the calls is given here.

Tested on: CCRIS mutagenicity, Ames/micronucleus/aberration tests
Experiment: CCRIS mutagenicity studies
[1] = Test System: AMES SALMONELLA TYPHIMURIUM, Strain/Indicator: TA98, Metabolic Activation: HAMSTER, LIVER, S-9, AROCLOR 1254, Method: STANDARD PLATE
[2] = Test System: AMES SALMONELLA TYPHIMURIUM, Strain/Indicator: TA98, Metabolic Activation: NONE, Method: STANDARD PLATE
[3] = Test System: AMES SALMONELLA TYPHIMURIUM, Strain/Indicator: TA98, Metabolic Activation: RAT, LIVER, S-9, AROCLOR 1254, Method: STANDARD PLATE
[4] = Test System: AMES SALMONELLA TYPHIMURIUM, Strain/Indicator: TA100, Metabolic Activation: HAMSTER, LIVER, S-9, AROCLOR 1254, Method: STANDARD PLATE
[5] = Test System: AMES SALMONELLA TYPHIMURIUM, Strain/Indicator: TA100, Metabolic Activation: NONE, Method: STANDARD PLATE
[6] = Test System: AMES SALMONELLA TYPHIMURIUM, Strain/Indicator: TA100, Metabolic Activation: RAT, LIVER, S-9, AROCLOR 1254, Method: STANDARD PLATE
[7] = Test System: AMES SALMONELLA TYPHIMURIUM, Strain/Indicator: TA1535, Metabolic Activation: HAMSTER, LIVER, S-9, AROCLOR 1254, Method: STANDARD PLATE
[8] = Test System: AMES SALMONELLA TYPHIMURIUM, Strain/Indicator: TA1535, Metabolic Activation: NONE, Method: STANDARD PLATE
[9] = Test System: AMES SALMONELLA TYPHIMURIUM, Strain/Indicator: TA1535, Metabolic Activation: RAT, LIVER, S-9, AROCLOR 1254, Method: STANDARD PLATE
[10] = Test System: AMES SALMONELLA TYPHIMURIUM, Strain/Indicator: TA1537, Metabolic Activation: HAMSTER, LIVER, S-9, AROCLOR 1254, Method: STANDARD PLATE
[11] = Test System: AMES SALMONELLA TYPHIMURIUM, Strain/Indicator: TA1537, Metabolic Activation: NONE, Method: STANDARD PLATE
[12] = Test System: AMES SALMONELLA TYPHIMURIUM, Strain/Indicator: TA1537, Metabolic Activation: RAT, LIVER, S-9, AROCLOR 1254, Method: STANDARD PLATE
[13] = Test System: AMES SALMONELLA TYPHIMURIUM, Strain/Indicator: TA1538, Metabolic Activation: HAMSTER, LIVER, S-9, AROCLOR 1254, Method: STANDARD PLATE
[14] = Test System: AMES SALMONELLA TYPHIMURIUM, Strain/Indicator: TA1538, Metabolic Activation: NONE, Method: STANDARD PLATE
[15] = Test System: AMES SALMONELLA TYPHIMURIUM, Strain/Indicator: TA1538, Metabolic Activation: RAT, LIVER, S-9, AROCLOR 1254, Method: STANDARD PLATE
[16] = Test System: MOUSE LYMPHOMA, Strain/Indicator: L5178Y (TK+/TK-), Metabolic Activation: NONE, Method: SUSPENSION/PLATE
[17] = Test System: MOUSE LYMPHOMA, Strain/Indicator: L5178Y (TK+/TK-), Metabolic Activation: RAT, LIVER, S-9, AROCLOR 1254, Method: SUSPENSION/PLATE
[18] = Test System: AMES SALMONELLA TYPHIMURIUM, Strain/Indicator: TA98, Metabolic Activation: NONE, Method: PREINCUBATION
[19] = Test System: AMES SALMONELLA TYPHIMURIUM, Strain/Indicator: TA98, Metabolic Activation: RAT, LIVER, S-9, AROCLOR 1254, Method: PREINCUBATION
[20] = Test System: AMES SALMONELLA TYPHIMURIUM, Strain/Indicator: TA100, Metabolic Activation: NONE, Method: PREINCUBATION
[21] = Test System: AMES SALMONELLA TYPHIMURIUM, Strain/Indicator: TA100, Metabolic Activation: RAT, LIVER, S-9, AROCLOR 1254, Method: PREINCUBATION

Question: `Clc1nnc(Cl)c2ccccc12` was tested. Which mutagenic call [1] did it give?
Answer: inactive; negative

Question: And the mutagenic call [2]?
Answer: inactive; negative

Question: And the mutagenic call [3]?
Answer: inactive; negative

Question: And the mutagenic call [4]?
Answer: inactive; negative

Question: What about the mutagenic call [5] of the same compound?
Answer: inactive; negative

Question: And the mutagenic call [6]?
Answer: inactive; negative

Question: And the mutagenic call [7]?
Answer: inactive; negative

Question: And the mutagenic call [8]?
Answer: inactive; negative

Question: What about the mutagenic call [9] of the same compound?
Answer: inactive; negative

Question: What about the mutagenic call [10] of the same compound?
Answer: inactive; negative

Question: And the mutagenic call [11]?
Answer: inactive; negative

Question: And the mutagenic call [12]?
Answer: inactive; negative

Question: And the mutagenic call [13]?
Answer: inactive; negative

Question: And the mutagenic call [14]?
Answer: inactive; negative

Question: And the mutagenic call [15]?
Answer: inactive; negative

Question: What about the mutagenic call [16] of the same compound?
Answer: active; positive. reevaluation of results: inconclusive

Question: And the mutagenic call [17]?
Answer: active; positive. reevaluation of results: positive

Question: With `CN(C)CCC=C1c2ccccc2CCc2ccccc21` as the compound, how does the mutagenic call [2] read?
Answer: inactive; negative

Question: And the mutagenic call [3]?
Answer: inactive; negative

Question: What about the mutagenic call [5] of the same compound?
Answer: inactive; negative

Question: What about the mutagenic call [6] of the same compound?
Answer: inactive; negative

Question: And the mutagenic call [8]?
Answer: inactive; negative

Question: And the mutagenic call [9]?
Answer: inactive; negative

Question: And the mutagenic call [11]?
Answer: inactive; negative

Question: And the mutagenic call [12]?
Answer: inactive; negative

Question: How did the mutagenic call (Test System: AMES SALMONELLA TYPHIMURIUM, Strain/Indicator: TA98, Metabolic Activation: HAMSTER, LIVER, S-9, AROCLOR 1254, Method: PREINCUBATION) turn out when `[CH3][Pb]([CH3])([CH3])[CH3]` was run?
Answer: inactive; negative

Question: What about the mutagenic call [18] of the same compound?
Answer: inactive; negative

Question: What about the mutagenic call [19] of the same compound?
Answer: inactive; negative

Question: And the mutagenic call (Test System: AMES SALMONELLA TYPHIMURIUM, Strain/Indicator: TA100, Metabolic Activation: HAMSTER, LIVER, S-9, AROCLOR 1254, Method: PREINCUBATION)?
Answer: inactive; negative

Question: What about the mutagenic call [20] of the same compound?
Answer: inactive; negative

Question: What about the mutagenic call [21] of the same compound?
Answer: inactive; negative

Question: And the mutagenic call (Test System: AMES SALMONELLA TYPHIMURIUM, Strain/Indicator: TA1535, Metabolic Activation: HAMSTER, LIVER, S-9, AROCLOR 1254, Method: PREINCUBATION)?
Answer: inactive; negative

Question: And the mutagenic call (Test System: AMES SALMONELLA TYPHIMURIUM, Strain/Indicator: TA1535, Metabolic Activation: NONE, Method: PREINCUBATION)?
Answer: inactive; negative

Question: And the mutagenic call (Test System: AMES SALMONELLA TYPHIMURIUM, Strain/Indicator: TA1535, Metabolic Activation: RAT, LIVER, S-9, AROCLOR 1254, Method: PREINCUBATION)?
Answer: inactive; negative

Question: What about the mutagenic call (Test System: AMES SALMONELLA TYPHIMURIUM, Strain/Indicator: TA1537, Metabolic Activation: HAMSTER, LIVER, S-9, AROCLOR 1254, Method: PREINCUBATION) of the same compound?
Answer: inactive; negative

Question: And the mutagenic call (Test System: AMES SALMONELLA TYPHIMURIUM, Strain/Indicator: TA1537, Metabolic Activation: NONE, Method: PREINCUBATION)?
Answer: inactive; negative

Question: What about the mutagenic call (Test System: AMES SALMONELLA TYPHIMURIUM, Strain/Indicator: TA1537, Metabolic Activation: RAT, LIVER, S-9, AROCLOR 1254, Method: PREINCUBATION) of the same compound?
Answer: inactive; negative

Question: Which results are given for `O=C(O)C1=NN(c2ccc(S(=O)(=O)O)cc2)C(=O)C1N=Nc1ccc(S(=O)(=O)O)cc1` (configuration not stated)?
Answer: mutagenic call [2]: inactive; negative; mutagenic call (Test System: AMES SALMONELLA TYPHIMURIUM, Strain/Indicator: TA98, Metabolic Activation: RAT LIVER S-9, AROCLOR 1254, Method: STANDARD PLATE): inactive; negative; mutagenic call [5]: inactive; negative; mutagenic call (Test System: AMES SALMONELLA TYPHIMURIUM, Strain/Indicator: TA100, Metabolic Activation: RAT LIVER S-9, AROCLOR 1254, Method: STANDARD PLATE): inactive; negative; mutagenic call (Test System: Mouse lymphoma, Strain/Indicator: L5178Y (tk+/tk-), Metabolic Activation: None, Method: Suspension/plate): inactive; negative; mutagenic call (Test System: Mouse lymphoma, Strain/Indicator: L5178Y (tk+/tk-), Metabolic Activation: Rat, Liver, S-9, Aroclor 1254, Method: Suspension/plate): inactive; negative

Question: Which mutagenic call [1] does the source give for `c1cnccn1` here?
Answer: inactive; negative

Question: And the mutagenic call [18]?
Answer: inactive; negative

Question: What about the mutagenic call [2] of the same compound?
Answer: inactive; negative

Question: What about the mutagenic call [19] of the same compound?
Answer: inactive; negative

Question: What about the mutagenic call [3] of the same compound?
Answer: inactive; negative

Question: What about the mutagenic call (Test System: AMES SALMONELLA TYPHIMURIUM, Strain/Indicator: TA98, Metabolic Activation: RAT, LIVER, S-9, PCB, Method: PREINCUBATION) of the same compound?
Answer: inactive; negative

Question: And the mutagenic call [4]?
Answer: inactive; negative

Question: And the mutagenic call [20]?
Answer: inactive; negative

Question: And the mutagenic call [5]?
Answer: inactive; negative

Question: And the mutagenic call [21]?
Answer: inactive; negative

Question: What about the mutagenic call [6] of the same compound?
Answer: inactive; negative

Question: And the mutagenic call (Test System: AMES SALMONELLA TYPHIMURIUM, Strain/Indicator: TA100, Metabolic Activation: RAT, LIVER, S-9, PCB, Method: PREINCUBATION)?
Answer: inactive; negative

Question: And the mutagenic call (Test System: AMES SALMONELLA TYPHIMURIUM, Strain/Indicator: TA102, Metabolic Activation: NONE, Method: PREINCUBATION)?
Answer: inactive; negative

Question: And the mutagenic call (Test System: AMES SALMONELLA TYPHIMURIUM, Strain/Indicator: TA102, Metabolic Activation: RAT, LIVER, S-9, AROCLOR 1254, Method: PREINCUBATION)?
Answer: inactive; negative

Question: What about the mutagenic call [7] of the same compound?
Answer: inactive; negative

Question: And the mutagenic call [8]?
Answer: inactive; negative

Question: And the mutagenic call [9]?
Answer: inactive; negative

Question: And the mutagenic call [10]?
Answer: inactive; negative

Question: And the mutagenic call [11]?
Answer: inactive; negative

Question: And the mutagenic call [12]?
Answer: inactive; negative

Question: And the mutagenic call [13]?
Answer: inactive; negative

Question: And the mutagenic call [14]?
Answer: inactive; negative

Question: What about the mutagenic call [15] of the same compound?
Answer: inactive; negative

Question: And the mutagenic call [16]?
Answer: inactive; negative. reevaluation of results: negative

Question: What about the mutagenic call [17] of the same compound?
Answer: inactive; negative. reevaluation of results: negative

Question: Which results are given for `O=C(O)[C@@H]1Cc2c([nH]c3ccccc23)[C@H]([C@H]2CCNC2=S)N1`?
Answer: mutagenic call (Test System: AMES SALMONELLA TYPHIMURIUM, Strain/Indicator: TA98, Metabolic Activation: NONE): inactive; negative; mutagenic call (Test System: AMES SALMONELLA TYPHIMURIUM, Strain/Indicator: TA98, Metabolic Activation: S-9): inactive; negative; mutagenic call (Test System: AMES SALMONELLA TYPHIMURIUM, Strain/Indicator: TA100, Metabolic Activation: NONE): inactive; negative; mutagenic call (Test System: AMES SALMONELLA TYPHIMURIUM, Strain/Indicator: TA100, Metabolic Activation: S-9): inactive; negative
